Consider two compounds from patent US20250002954A1, “Novel Compound, Use Thereof, and Method for Producing Same, and Compound-Containing Composition, Method for Producing 4-Trehalosamine, and Microorganism” (Microbial Chemistry Research Foundation, priority 2021, published 2025).

Each structure is given as a SMILES string.

One data set deals with blood glucose level. Description: Change in blood glucose level after oral administration to mice. It is filed as in vivo, ICR mice. Conditions: single oral dose 0.5 mg per g of body weight, fasted. The procedure:
4-trehalosamine or trehalose dissolved in saline at 0.5 mg/10 μL per g of body weight was orally administered in a single dose to ICR mice (9-week to 10-week old, female, n=5) that had been fasted overnight. The five mice on which the same treatment had been performed were placed in the same cage.
In a 96-well plate, the centrifuged supernatant sample of dilution of blood with methanol prepared in <Determination of blood level of 4-trehalosamine> (a sample similar to the sample used in the LC-MS analysis) was placed at 5 µL/well and dried by suction with a vacuum pump. After that, it was dissolved in 25 μL of water, 75 μL of Glucose assay reagent (manufactured by Sigma-Aldrich) was added, and the solution was left to stand at 37° C. for 1 hour. Absorbance at 340 nm was then measured with a plate reader Cytation 5 (manufactured by Bio Tek Instruments) and the amount of glucose estimated.

For data set [1], the system named is aggregated proteins Q74 and SynA53T in SH-SY5Y cells and NH-12 cells. Nature of the data set: Elimination effect on aggregated protein in cells (Q74, SynA53T). The data set is classed as cell-based, human. Conditions: 100 mM 4-trehalosamine, 70 μM IMCTA-C14 or 100 mM trehalose, 14 hours; SH-SY5Y and NH-12 cells. As to the method: The effect of 4-trehalosamine or trehalose analog on Q74, which is partial peptide of huntingtin (Htt), the causal protein of Huntington's disease, and SynA53T, which is a mutation of α-synuclein, the causal protein of Parkinson's disease, (both aggregated proteins) was determined in the following manner.
Neuroblastoma cells SH-SY5Y (obtained from European Collection of Authenticated Cell Cultures (ECACC)) and human neuroblastoma cells NH-12 (obtained from RIKEN BRC) were each inoculated at 14×10^4 cells/mL and cultured in DMEM culture medium at 37° C. for 48 hours.
After the culture of SH-SY5Y cells and NH-12 cells, pEGFP-Q74 vector or EGFP-alphasynuclein-A53T (both obtained from addgene), which are expression vectors of aggregated protein, were transfected with transfection reagent (Viafect, manufactured by Promega). After 24 hours from the transfection, 100 mM 4-trehalosamine, 70 μM IMCTA-C14, or 100 mM trehalose was added and the cells were further treated for 14 hours. Untreated cells without addition of the compounds were used as control. After washing the cells three times with PBS, hyposmotic fluid (solution of one tablet of cOmplete, Mini, EDTA-free Protease Inhibitor Cocktail (CM, manufactured by Merck) in 50 mL of pure water) was added and the mixture was shaken on ice for 10 minutes. It was then centrifuged at 21,300×g for 10 minutes to be separated into soluble protein (Sol) and aggregated protein (Agg) […]. Thereafter, they were turned into samples for western blotting in a similar manner to test example 10-1.
The western blotting was performed in a similar manner to test example 4 except that anti-GFP antibody (manufactured by Proteintech) was used at 1/5,000 dilution and anti-LC3 antibody (manufactured by Cell Signaling Technology) was used at 1/2,000 dilution as the primary antibodies in the method described in test example 4. The results for neuroblastoma cells SH-SY5Y are shown in FIGS. 22A and 22B, and the results for human neuroblastoma cells NH-12 are shown in FIGS. 22C and 22D. […]

For data set [2], the system named is trehalase derived from pig kidney. Description: Degradation by trehalase derived from pig kidney (glucose release). The data set is classed as in vitro ADME. Conditions: 0.01 mM to 10 mM substrate, 0.24 units/mL, pH 5.7, 37° C., 20 minutes. The procedure: Trehalose (TRH) or the 4-trehalosamine (4TA) from the <Purification process> of production example 10 was added to and mixed with 135 mM sodium citrate buffer solution (pH 5.7) so that the final concentration was 0 mM, 0.01 mM, 0.1 mM, 1 mM, or 10 mM. Into them, trehalase derived from pig kidney (0.24 units/mL, manufactured by Sigma-Aldrich) was added and left to react at 37° C. for 20 minutes. Into the solution after reaction, a triple amount of Glucose assay reagent (manufactured by Sigma-Aldrich) was added and left to react at room temperature for 15 minutes. After that, absorbance at 340 nm was measured with a plate reader Cytation 5 (manufactured by Bio Tek Instruments) and the amount of glucose released as degradation product was estimated. FIG. 19B is a zoomed-in view of FIG. 19A.

Data set [3] can be described thus: pH buffer effect (pH change on addition of HCl or NaOH). The data set is classed as physicochemical. The procedure:
Using the purified product of 4-trehalosamine obtained in the <Purification process> of production example 10, the functionality of 4-trehalosamine as buffer reagent was determined in the following manner.
A change in pH while 50 μL to 100 μL of 1 M hydrochloric acid (HCl) or 1 M sodium hydroxide (NaOH) was added to 50 mL of aqueous solution of 10 mM 4-trehalosamine (production example 10), 50 mL of aqueous solution of 10 mM trehalose, 50 mL of 10 mM tris, 50 mL of aqueous solution of 10 mM MES (2-(N-morpholino) ethanesulfonic acid), or 50 mL of aqueous solution of 10 mM HEPES (4-(2-hydroxyethyl)-1-piperazinylethane sulfonic acid) was measured with a pH meter (LAQUA F-51, manufactured by HORIBA, Ltd.).

As for `OC[C@H]1O[C@H](O[C@H]2O[C@H](CO)[C@@H](O)[C@H](O)[C@H]2O)[C@H](O)[C@@H](O)[C@@H]1O` [trehalose, reference compound], the “change in blood glucose level” value in the data set with blood glucose level is given as “elevation in the blood glucose level was observed 30 minutes to 1 hour after administration”. Further, the “aggregate of Q74 and aggregate of SynA53T” value in data set [1] is on record as “significantly decreased”. The “degradation by pig trehalase (release of glucose)” value in data set [2] was “degraded in this reaction and release of glucose was observed”.

Regarding `N[C@H]1[C@H](O)[C@@H](O)[C@@H](O[C@H]2O[C@H](CO)[C@@H](O)[C@H](O)[C@H]2O)O[C@@H]1CO` [4-trehalosamine], in the data set on blood glucose level, the “change in blood glucose level” value is given as “no elevation in the blood glucose level was observed”. The “aggregate of Q74 and aggregate of SynA53T” value in data set [1] is recorded as “significantly decreased”. Further, the “degradation by pig trehalase (release of glucose)” value in data set [2] was “not degraded by pig trehalase”. Also, the pH buffer effect entry in data set [3] (10 mM aqueous solution, 1 M HCl or 1 M NaOH added) is “strong pH buffer effect comparable that of tris”. Also, in data set [3] (aqueous solution, estimated from titration), the pKa was 6.99.

By pKa is commonly meant the pH at which an ionisable group is half protonated.
